Assay results from patent US9315544B2, “Method of treating eosinophilia by administering an immunomodulating peptide” (National Tsing Hua University, priority 2012, dated 2016).

Experiments:
[1] = system: mite-induced airway inflammation; test: Lung histopathology (H&E), peri-bronchiolar and alveolar inflammation scores; type: in vivo, BALB/c mouse
Description: (§1) FIG. 4 illustrates experimental design. All groups except control group were immunized with mite crude extract allergen on days 1 and 8, then mite crude extract allergen intratracheally on day 15 in all mite treated group, BALB/c mouse were divided into six groups (1) control group (PBS), (2) mites delivered intratracheally (mIT, mite on day 15) alone, (3) CMP intranasal (eIN, CMP on days 1 to 22) alone, (4) preventive-treatment group (eIN+mIT, CMP on days 1 to 14, mite on day 15) (5) therapy-treatment group (mIT+eIN, mite on day 15, CMP on days 15 to 22), and (6) preventive- and therapeutic-treatment group (eIN+mIT+eIN, CMP on days 1 to 22, mite on day 15).
(§2) FIG. 6A-6B illustrates inhibitory effect of CMP on influx of inflammatory cells. […] (A) Scores for peri-bronchiolar, alveolar inflammation and (B) PAS were determined based on the histological sections. Each result was expressed as the mean±S.D., n=4. ***, P<0.001. […]
(§3) The formalin-fixed lung sections stained with hematoxylin and eosin (H&E) were assigned a unit value for alveolar, peri-bronchiolar, and total inflammation by computing the means of three independent scores for three randomly selected fields. […] For evaluating the hyperplasia goblet cells, medium-sized airways were assessed in sections stained with periodic acid-Schiff (PAS) stain. Two reviewers independently and randomly scored 10 fields of each slide. […]

CCL11 = test: Cytokine mRNA expression analysis by quantitative real-time PCR (CCL11); type: cell-based; conditions: Beas-2B cells
Protocol: FIG. 1A-1B illustrates immunomodulatory effect of CMP on transcription of cytokine. Beas-2B cells were starved with serum free medium for 24 h, followed by stimulation with refold 5 μM ECP or 5 μM CMP or co-treatment with 5 μM ECP and 5 μM CMP at 37° C. for (A) 6 h and (B) 12 h, respectively. The mRNA quantities of CCL11, CCL24 and CCL26 were determined by real-time PCR. Beas-2B cells without protein treatment were used as control. […] The data represented at least three independent experiments and the error bar was shown as standard deviation (SD).
For inflammatory cytokine expression analysis, Beas-2B cells were stimulated with three different conditions: 1) 5 μM ECP, 2) 5 μM CMP and 3) co-incubated with 5 μM ECP and 5 μM CMP at 37° C. for 6 and 12 h. After incubation, total RNAs were extracted with RNA TRIzol reagent (Invitrogen, Inc) and reverse transcribed with MoMLV-reverse transcriptase (Promega, Madison, Wis.). SYBR Green-based quantitative real-time PCR will be used to quantify the gene of interest, relative expression ratios of genes of interest were normalized to glyceraldehyde-3-phosphate dehydrogenase (GAPDH) transcripts. Changes in cytokine expression were measured by quantitative real-time PCR (qRT-PCR) employing the StepOne™ amplification and detection system (Life Technologies Corporation). Data were analyzed by application of the StepOne™ quantification program software (version 2.22, Life Technologies Corporation) and expressed as means±S.D. Significance analysis was carried out by a two-sample unequal variance t-test with two-tailed distribution (post test). Significance was set as P<0.05.
ECP, the best known marker protein of asthma, is involved in triggering cytokine expression in bronchial epithelial cells. Real-time PCR analysis was carried out to quantify expression levels of indicated cytokines upon treatment with recombinant ECP in the presence and absence of CMP Bronchial epithelial Beas-2B cells were separately cultured in serum-free medium in the presence of 5 μM ECP, 5 μM CMP and both 5 μM ECP and 5 μM CMP for 6 and 12 h to monitor cytokine and chemokine gene modulation using real-time quantitative PCR. Untreated Beas-2B cells incubated at the same condition for 6 h and 12 h were used as negative controls. Here variation of gene expression levels of chemokines including CCL11, CCL24 and CCL26 was analyzed.

goblet cell hyperplasia = test: Lung histopathology (PAS), goblet cell hyperplasia score; type: in vivo, BALB/c mouse; conditions: eIN+mIT+eIN group (CMP days 1 to 22)
Description: as §1, §2, §3

Q: What does the source list for NYRWRCKNQN (CMP)?
A: effect on peribronchiolar, alveolar inflammation and goblet cells hyperplasia ([1]; eIN+mIT+eIN compared with eIN+mIT and mIT+eIN group): more potently suppressive effect; peri-bronchiolar and alveolar scores compared with mIT group ([1]; eIN+mIT+eIN group (CMP days 1 to 22)): significantly lower; effect on chemokine gene expression (CCL11, CCL24, CCL26) (CCL11; 5 μM CMP alone, 6 and 12 h): no effect; ECP-induced gene expression of CCL11 (CCL11; co-treatment 5 μM ECP and 5 μM CMP, 6 h): significant reduction; score of goblet cell hyperplasia compared with mIT group (goblet cell hyperplasia): lower score
